Experiments:
Assay in all cases: cryo-EM structure of intact phycobilisome, […] Å
Assay type in all cases: binding
[1] = target: T1, ApcD (Synechococcus 7002) (Picosynechococcus sp. PCC 7002, UniProt O68966); conditions: covalent; native chromophore
T1 construct: native, within intact phycobilisome purified from cells; mildly glutaraldehyde cross-linked; paired with ApcB in trimer A4

[2] = target: T2, ApcF (Synechococcus 7002) (Picosynechococcus sp. PCC 7002, UniProt O68967); conditions: covalent; native chromophore
T2 construct: native, within intact phycobilisome purified from cells; mildly glutaraldehyde cross-linked; trimer A3

[3] = target: T3, ApcE (LCM), Synechococcus 7002 (Picosynechococcus sp. PCC 7002, UniProt O68973); conditions: covalent; native chromophore; in alpha-LCM domain
T3 construct: native, within intact phycobilisome; N-terminal alpha-LCM domain holds the bilin; three REP domains
T3 sequence (O68973 1-886): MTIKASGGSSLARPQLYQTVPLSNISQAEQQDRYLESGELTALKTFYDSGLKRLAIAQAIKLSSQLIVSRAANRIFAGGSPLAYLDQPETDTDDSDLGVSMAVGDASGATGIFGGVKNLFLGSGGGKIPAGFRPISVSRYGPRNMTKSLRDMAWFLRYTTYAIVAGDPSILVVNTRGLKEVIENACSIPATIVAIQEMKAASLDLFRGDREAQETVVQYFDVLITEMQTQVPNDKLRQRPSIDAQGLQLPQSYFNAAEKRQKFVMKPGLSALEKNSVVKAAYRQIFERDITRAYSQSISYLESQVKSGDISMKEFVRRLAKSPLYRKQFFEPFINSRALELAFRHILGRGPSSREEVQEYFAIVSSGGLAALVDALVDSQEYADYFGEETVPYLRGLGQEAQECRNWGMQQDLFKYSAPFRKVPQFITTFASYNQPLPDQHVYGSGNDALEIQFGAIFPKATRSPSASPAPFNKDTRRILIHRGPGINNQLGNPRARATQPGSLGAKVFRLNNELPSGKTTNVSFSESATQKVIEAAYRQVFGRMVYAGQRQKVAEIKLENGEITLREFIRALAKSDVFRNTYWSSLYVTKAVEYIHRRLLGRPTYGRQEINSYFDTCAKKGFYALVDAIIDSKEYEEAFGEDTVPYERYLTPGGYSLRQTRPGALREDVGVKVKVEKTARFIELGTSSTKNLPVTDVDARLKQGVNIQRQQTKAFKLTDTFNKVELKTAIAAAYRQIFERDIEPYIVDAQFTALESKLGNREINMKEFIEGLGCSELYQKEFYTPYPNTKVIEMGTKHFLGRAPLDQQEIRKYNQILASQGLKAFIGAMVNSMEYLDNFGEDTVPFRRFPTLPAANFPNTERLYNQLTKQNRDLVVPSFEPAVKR

[4] = target: T4, ApcA (Synechococcus 7002) (Picosynechococcus sp. PCC 7002, UniProt B1XQM2); conditions: covalent; native chromophore
T4 construct: native, within intact phycobilisome purified from cells; mildly glutaraldehyde cross-linked
T4 sequence (B1XQM2 2-161): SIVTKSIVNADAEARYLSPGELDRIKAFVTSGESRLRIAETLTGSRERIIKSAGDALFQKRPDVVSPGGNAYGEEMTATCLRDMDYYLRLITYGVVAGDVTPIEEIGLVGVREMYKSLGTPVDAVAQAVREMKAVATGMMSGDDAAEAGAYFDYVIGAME

[5] = target: T5, ApcB (Synechococcus 7002) (Picosynechococcus sp. PCC 7002, UniProt O68970); conditions: covalent; native chromophore
T5 construct: native, within intact phycobilisome purified from cells; mildly glutaraldehyde cross-linked
T5 sequence (O68970 1-161): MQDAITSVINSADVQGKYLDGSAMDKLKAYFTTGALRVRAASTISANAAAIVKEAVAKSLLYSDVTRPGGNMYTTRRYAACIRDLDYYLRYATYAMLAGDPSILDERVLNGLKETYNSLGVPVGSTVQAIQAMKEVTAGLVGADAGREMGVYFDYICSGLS

CC=C1C(=Cc2[nH]c(C=C3N=C(C=C4NC(=O)C(CC)=C4C)C(C)=C3CCC(=O)O)c(CCC(=O)O)c2C)NC(=O)C1C (centres unmarked) [phycocyanobilin]
cryo-EM structure of intact phycobilisome, 3.5 Å [1]: Only the bilin of ApcD is shown with its ring-A through ring-D indicated.
cryo-EM structure of intact phycobilisome, 3.5 Å [2]: The bilins of ApcF (orange), ApcE (red), and ApcA (forest green) are shown
cryo-EM structure of intact phycobilisome, 3.5 Å [3]: The bilins of ApcF (orange), ApcE (red), and ApcA (forest green) are shown
cryo-EM structure of intact phycobilisome, 3.5 Å [4]: The bilins of ApcF (orange), ApcE (red), and ApcA (forest green) are shown
cryo-EM structure of intact phycobilisome, 3.5 Å [5]: Y116 is located between αApcD and the bilin of ApcB^A4-II
